Reference: US5525350A, “Supplementation of protein diets with di- and tripeptides” (Kansas State University Research Foundation, priority 1994, dated 1996)
Where a name gives a salt, the structure may show the parent alone. Peptide text beside a SMILES is read from it.

How the values were obtained:
[1] = serum urea nitrogen (nitrogen utilization) in starter pigs; assay type: in vivo; details: for d 7 urea N: day 7; for d 14 urea N: day 14
Text: (§1) A trial of 180 (21±2 days of age) pigs was used in a growth assay to compare the effects of supplementing the pigs' diet with L-lysine^. HCl, 98% (78.5% lysine), and the dipeptide L-lysyl-glycine^. HCl (approximately 50% lysine) on starter pig performance and nitrogen utilization. Pigs were blocked (n=5) by initial weight (6.3 kg) and assigned to treatments according to ancestry and sex. Feed and water were available ad libitum for 21 days post-weaning (11.7 kg final weight). The control diets were formulated to include 0.9% and 1.1% lysine respectively, using a corn-soybean meal mixture containing 15% edible grade dried whey. Synthetic lysine^. HCl and the dipeptide lysyl-glycine were added to the control diets to form test diets containing 1.0% and 1.1% lysine and lysyl-glycine respectively. The following table sets forth each of the six diets used in this study.
(§2) Serum samples were obtained on days 7, 14, and 21 for analysis of urea nitrogen. Data were analyzed as a randomized complete block design and means were separated using Bonferroni pared t-tests. Single df contrasts were used to evaluate differences between the two lysine sources and levels. No differences in daily gain or daily feed intake were observed between treatments. In general, pigs consuming the 1.1% lysine corn-soybean meal control diet had higher urea nitrogen than the pigs consuming the reduced protein diets and those consuming the 1.1% lysine, lysyl-glycine supplemented diet had the lowest urea nitrogen. Pigs consuming the diets containing lysyl-glycine had lower urea nitrogen levels than pigs fed the lysine^. HCl diets on day 21. […] HCl as evidenced by the lower serum urea nitrogen levels on day 21.

[2] = tested on: pigs; assay: growth assay, starter pig performance 0-21 days post-weaning; assay type: in vivo; details: for Daily gain: fed ad libitum
Text: as §1, §2

[3] = serum, day 21, diet 1.0% lysine
[4] = serum, day 21, diet 1.1% lysine

SMILES: NCCCC[C@H](N)C(=O)NCC(=O)O [Lysyl-glycine, L-lysyl-glycine^. HCl] (H-Lys-Gly-OH)
- amino acid utilization compared with lysine HCl ([1]; as evidenced by lower serum urea nitrogen on day 21): more efficiently utilized
- d 7 urea N ([1]; serum, diet 1.0% lysine): 9.7 mg/dL
- d 7 urea N ([1]; serum, diet 1.1% lysine): 8.5 mg/dL
- d 14 urea N ([1]; serum, diet 1.0% lysine): 8.9 mg/dL
- d 14 urea N ([1]; serum, diet 1.1% lysine): 8.6 mg/dL
- urea nitrogen levels compared with pigs fed the lysine HCl diets ([1]; serum, day 21, P = 0.05): lower
- d 21 urea N [1, 3]: 9.1 mg/dL
- d 21 urea N [1, 4]: 7.9 mg/dL
- urea nitrogen compared with the other diets ([1]; serum, 1.1% lysine, lysyl-glycine supplemented diet, in general): lowest
- Daily feed ([2]; diet 1.0% lysine): 395 g
- Gain/feed ([2]; diet 1.0% lysine): 547
- Daily gain ([2]; diet 1.0% lysine): 218 g
- Daily feed ([2]; diet 1.1% lysine): 432 g
- Gain/feed ([2]; diet 1.1% lysine): 643
- Daily gain ([2]; diet 1.1% lysine): 280 g

SMILES: NCCCC[C@H](N)C(=O)O [Lysine HCl, L-lysine^. HCl, reference compound]
- d 7 urea N ([1]; serum, diet 1.0% lysine): 9.5 mg/dL
- d 7 urea N ([1]; serum, diet 1.1% lysine): 9.2 mg/dL
- d 14 urea N ([1]; serum, diet 1.0% lysine): 9.6 mg/dL
- d 14 urea N ([1]; serum, diet 1.1% lysine): 8.4 mg/dL
- d 21 urea N [1, 3]: 10.7 mg/dL
- d 21 urea N [1, 4]: 8.5 mg/dL
- Daily feed ([2]; diet 1.0% lysine): 460 g
- Gain/feed ([2]; diet 1.0% lysine): 600
- Daily gain ([2]; diet 1.0% lysine): 276 g
- Daily feed ([2]; diet 1.1% lysine): 413 g
- Gain/feed ([2]; diet 1.1% lysine): 613
- Daily gain ([2]; diet 1.1% lysine): 253 g
